“Also recorded” adds a separate entry of the source.
What was measured:
[1] = test system: C57 and BTBR mice; assay: Social preference procedure: novelty preference test; format: in vivo, mouse; conditions: 1 mg/kg IP
Experimental: All drugs were dissolved in physiological 0.9% saline and administered at a constant volume of 1 ml/100 g body weight. Because all drugs utilized in these studies were synthesized as hydrochloride (HCl) salts, they were weighed as salts prior to the preparation of all solutions. All drugs at all concentrations are readily dissolved in an aqueous solution at normal pH. Injections of all drugs were administered intraperitoneally (IP) to mimic pharmacokinetic parameters typical of oral administration, without the behaviour-impairing effects of gavage stress.
This assay was conducted in adult male C57 and BTBR mice (n=6 per group) in a dedicated conditioning room where ambient light, sound, and human contact were tightly controlled.
Social preference chambers consisted of two polycarbonate boxes (13.5 cm wide×22.5 cm tall×31.0 cm deep), floored with rough-textured black ABS plastic, and connected to one another by a 1.25″ PVC T-junction. An infrared photobeam emitter/detector array was mounted at each intersection of the T-junction and each preference compartment, and as a mouse traversed the apparatus, it would break the photobeam upon entry to or exit from each preference compartment. Beam breaks started or stopped a counter on an interfaced computer, allowing automated collection of time spent in each compartment. At the end of each test, data were reported as time (in seconds) spent in each compartment, the number of entries into each compartment, and the average time spent in each compartment following an entry. Social preference tests were conducted in an iterative manner, with each test subject completing four distinct phases as described below. Between testing sessions, chambers were sanitized by wiping the insides with a disinfectant product provided by the UAMS Department of Laboratory Animal Medicine. At the end of the week (upon completion of all phases of the procedure), each apparatus was disassembled and all parts were sanitized. No food or water were available during social preference sessions, but were available in the home cage immediately afterwards. […]

[2] = test system: C57 and BTBR mice; assay: Conditioned place preference; format: in vivo, mouse; conditions: 1.0 mg/kg, x3 pairings, C57 mice
Experimental: The same 2-compartment chambers as described above in the social preference studies for conditioned place preference. For these studies, compartments are differentiated by floor texture (rough black plastic vs steel punch plate) and wall pattern (vertical vs. horizontal stripes.) An initial preference/habituation test was first run where mice were able to freely traverse the apparatus for 30 minutes. The following day, mice were assigned to receive saline in one compartment and drug in the other. Saline pairings occurred in the morning, drug pairings occurred in the afternoon, and were separated by at least 4 hours, during which time mice returned to their home cages. Three such pairings were performed, where mice were injected, returned to the home cage for a 15 min pretreatment period, then confined to the injection-appropriate compartment for 30 minutes. Half the subjects (within strain) received drug pairings on the plastic floor+vertical stripes side, and the other half received drug pairings on the punch plate floor+horizontal stripes side. […] The post-conditioning preference test was identical to the initial preference/habituation session, where mice were freely able to traverse the apparatus for 30 minutes. Time spent in each compartment was recorded, and expressed as a preference score for the drug paired side (calculated as time spent in that compartment during the post-test—time spent there during the pre-test.) All preference and conditioning sessions were conducted under the same low light conditions as in the social preference tests.

[3] = test system: C57 and BTBR mice; assay: Tail cuff blood pressure monitoring (CODA non-invasive system); format: in vivo, mouse; conditions: for toxicity (blood pressure) relative to racemic MDMA: IP
Experimental: The 8 chamber CODA™ Non-invasive blood pressure system was set up to monitor the blood pressure of C57 and BTBR mice. Mice were habituated to restraint, saline injection (IP), and tail-cuff pressure monitoring for at least three days before drug administration. Across days, groups of habituated mice were injected IP with increasing doses of test drug, in this case (R)-I, (S)-I and (R/S)-I, then returned to the home cage for 30 min. Tail cuff pressure monitoring then determined effects on systolic, diastolic, and mean arterial pressure in restrained C57 and BTBR mice in sessions lasting ˜30 min.
In the tail cuff pressure monitoring, an occlusion tail cuff was inflated to impede the blood flow to the tail. The cuff was deflated slowly, and a second tail cuff, incorporating the VPR sensor, measured the physiological characteristics of the returning blood flow. As the blood returned to the tail, the VPR sensor cuff measured the tail swelling resulting from arterial blood flow pulsations. Systolic blood pressure was automatically measured at the first appearance of tail swelling. Diastolic blood pressure was automatically measured when the increasing rate of swelling ceased in the tail.

[4] = molecular target: DAT (Homo sapiens, UniProt Q01959); assay: QSAR model predicted IC50, DAT; conditions: ratio = 1/DAT IC50:1/SERT IC50, from predicted IC50
Experimental: In silico studies (QSAR and docking) are useful tools to understand drug mechanisms, and they are relatively cheaper and faster than experiments. A QSAR model was created for each monoamine transporter. Additionally, the docking properties of phenethylamines were investigated.
QSAR: DAT, SERT and NET IC50 values were collected from the literature for 73 phenethylamines. Three different software's were used for descriptor calculations, and almost 2000 descriptors were calculated. Highly correlated descriptors were eliminated before multi-linear regression (MLR) analysis. All descriptors were merged with experimental inhibition values in QSARiNS software. The multi-Criteria Decision-Making tool of QSARiNS was used to pick the best model.
The predicted IC^50 (mM) values of the test molecules generated based on the QSAR developed as described above are presented in Table 4.

[5] = test system: C57 and BTBR mice; assay: Compartment entries during social novelty test (proxy for locomotor stimulant effects); format: in vivo, mouse; conditions: for total entries during social novelty test: relative to saline; for compartment entries during social novelty test, change of stimulation with dose: various doses
Description: Social preference chambers consisted of two polycarbonate boxes (13.5 cm wide×22.5 cm tall×31.0 cm deep), floored with rough-textured black ABS plastic, and connected to one another by a 1.25″ PVC T-junction. An infrared photobeam emitter/detector array was mounted at each intersection of the T-junction and each preference compartment, and as a mouse traversed the apparatus, it would break the photobeam upon entry to or exit from each preference compartment. Beam breaks started or stopped a counter on an interfaced computer, allowing automated collection of time spent in each compartment. At the end of each test, data were reported as time (in seconds) spent in each compartment, the number of entries into each compartment, and the average time spent in each compartment following an entry. Social preference tests were conducted in an iterative manner, with each test subject completing four distinct phases as described below. Between testing sessions, chambers were sanitized by wiping the insides with a disinfectant product provided by the UAMS Department of Laboratory Animal Medicine. At the end of the week (upon completion of all phases of the procedure), each apparatus was disassembled and all parts were sanitized. No food or water were available during social preference sessions, but were available in the home cage immediately afterwards.
Quantifying total entries into the preference compartments provides a proxy measurement for locomotor stimulant effects of the various doses of the various test drugs. This establishes a limit to the drug doses that can be tested in the social preference procedure, as induction of locomotor stimulant effects confounds preference assessments (because mice stop attending to the social stimuli in each compartment and instead spend their time engaged in locomotor behavior.) Motor activity varies across the distinct phases of social preference testing, in part because the habituation session is twice as long (30 minutes) as the novelty, sociability, and social novelty tests (15 minutes each), but also because mice emit high levels of exploratory behavior in novel environments. Thus, as familiarity with the test apparatus increases over successive exposures to the chambers, the number of entries decreases.
(Note that entries were collected for every test, but drug effects on entries during earlier phases may be less reliable due to the confounding influence of changing familiarity with the apparatus across phases.)

DAT, sequence (Q01959 whole entry, species assumed): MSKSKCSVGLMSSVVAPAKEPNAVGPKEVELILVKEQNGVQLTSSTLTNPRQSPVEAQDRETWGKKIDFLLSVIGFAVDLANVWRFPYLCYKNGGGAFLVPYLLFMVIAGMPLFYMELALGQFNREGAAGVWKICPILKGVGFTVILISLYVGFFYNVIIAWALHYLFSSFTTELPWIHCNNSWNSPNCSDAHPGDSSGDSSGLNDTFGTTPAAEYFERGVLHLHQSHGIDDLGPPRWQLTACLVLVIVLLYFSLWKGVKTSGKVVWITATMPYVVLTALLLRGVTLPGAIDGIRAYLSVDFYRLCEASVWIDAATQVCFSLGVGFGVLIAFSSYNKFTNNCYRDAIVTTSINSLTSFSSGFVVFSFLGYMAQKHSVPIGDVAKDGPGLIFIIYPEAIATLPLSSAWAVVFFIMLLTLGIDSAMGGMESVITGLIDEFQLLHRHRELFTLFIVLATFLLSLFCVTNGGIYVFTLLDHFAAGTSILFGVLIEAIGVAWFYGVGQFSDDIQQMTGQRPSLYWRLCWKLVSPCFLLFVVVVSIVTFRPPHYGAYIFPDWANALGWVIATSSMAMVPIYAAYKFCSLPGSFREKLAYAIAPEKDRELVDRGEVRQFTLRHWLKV

Structure (SMILES) | effect on novelty preference (time spent with dummy mouse) [1] | place conditioning (place preference) [2] | cardiovascular effects (systolic, diastolic, mean arterial pressure) ([3]; 10 mg/kg and 30 mg/kg IP, C57 and BTBR mice) | toxicity (blood pressure) relative to racemic MDMA [3] | blood pressure rise relative to racemic MDMA and S-methamphetamine ([3]; both strains) | DAT/SERT (calculated) [4] | total entries during social novelty test ([5]; 1 mg/kg, C57 mice) | systolic and diastolic blood pressure ([3]; 10 mg/kg i.p.) | compartment entries during social novelty test (stimulation) ([5]; 1 mg/kg, BTBR mice, compared to (R)-I, racemic MDMA and saline) | compartment entries during social novelty test, change of stimulation with dose ([5]; BTBR mice) | compartment entries during social novelty test, change of stimulation with dose ([5]; C57 mice)
c1cc2c(cc1C[C@H]1CCCN1)OCO2 [(R)-I, (R)-2-[(2H-1,3-benzodioxol-5-yl)methyl]pyrrolidine] | no systematic effects | neither 1.0 mg/kg (R)-I nor 1.0 mg/kg (S)-I elicited significant place preferences; also recorded: negligible effects | lower impact on cardiovascular effects than (S)-I | significantly less toxic | significantly lower | 0.022 | only slightly increased |  |  |  | 
c1cc2c(cc1C[C@@H]1CCCN1)OCO2 [(S)-I, (S)-2-[(2H-1,3-benzodioxol-5-yl)methyl]pyrrolidine] | no systematic effects | neither 1.0 mg/kg (R)-I nor 1.0 mg/kg (S)-I elicited significant place preferences; also recorded: negligible effects |  | significantly less toxic |  | 0.043 | only slightly increased | higher systolic and diastolic blood pressure than (R)-I | substantially stimulated | increase with increasing dose | reverses
